“Also recorded” adds a separate entry of the source.
Legend:
[1] = tested on: mice subjected to surgical manipulation of the small intestine; assay: intestinal transit of fluorescein-labeled dextran after intestinal manipulation (IM); assay type: in vivo, mouse
Source text: Surgical Manipulation. Mice were anesthetized with inhaled isoflurane and the abdomen opened by midline laparotomy. The small intestine was eventrated and gently compressed along its entire length using moistened sterile cotton applicators. This procedure is designed to simulate “running” of the bowel commonly performed during abdominal surgery in the clinical setting. The bowel was repositioned in the abdominal cavity and the incision closed by two layers of continuous sutures. The duration of the procedure was approximately 15 minutes and the animals moved freely about their cage within 20 minutes of withdrawal of anesthetic.
CO Inhalation Treatment. Mice housed in cages were placed in plexiglass chambers that were continuously ventilated with air or with air containing CO (250 ppm). […]
Mice were anesthetized and killed by exsanguination at the end of the 24-hour chamber treatment with CO or room air. In vitro circular muscle mechanical activity was measured as previously described in Eskandari et al. (Am. J. Physiol. 273:G727-G734 (1997)). […] Contractile activity was calculated by integrating the area under the trace. […] Intestinal transit was measured in controls and manipulated animals 24 hours postoperatively by evaluating the intestinal distribution of a non-absorbable fluorescein-labeled dextran (MW 70,000). […]

[2] = tested on: mice with ileus induced by manipulation of the small intestine; assay: Example 3 intestinal transit, geometric center after IM; assay type: in vivo, mouse; settings: IM+CO mice (250 and 500 ppm), 24 hours
Description: Ileus was induced in mice by gentle manipulation of the small intestine. An incision was made to expose the abdominal cavity of the mouse, and bowel manipulation was performed by gentle poking and prodding of the small intestine (see, e.g., Schwarz et al., Gastroenterology 121(6):1354-1357 (2001)). The incision was subsequently closed, and analyses were performed 24 hours later. Mice were exposed to CO by inhalation (250 and 500 ppm) for 1 hour immediately prior to intestinal manipulation and during the entire 24-hour recovery period. Intestinal contractility was assessed in vitro by measuring circular muscle strip contractions in response to bethanechol (0.3-300 μM) and in vivo by determining intestinal transit from the distribution of orally-fed, fluorescein-labeled dextran and calculating geometric center as described in Example 1 above. HO-1 and IL-10 mRNA expression were determined by SYBR green real time RT-PCR from extracts of muscularis extemae, as described in Example 1 above. Release of nitric oxide (NO), a potent inhibitor of smooth muscle contractility, was estimated by measuring serum total nitrite, also described in Example 1 above.

[3] = tested on: pigs with ileus induced by mild manipulation of the small intestine; assay: intestinal transit of steel ball bearings after IM in pig model; assay type: in vivo; settings: CO 250 ppm for 3 hr prior to IM
Description: Similar experiments were performed in a pig model. Ileus was induced by mild manipulation of the small intestine (IM). Pigs were exposed to CO (250 ppm) or air (controls) for a period of 3 hr prior to IM. Gastrointestinal function was assessed in vivo by observing intestinal transit of steel ball bearings placed within the small intestine.

[C-]#[O+] [CO, carbon monoxide]
intestinal transit (GC, distribution of labeled dextran) ([1]; IM + CO 250 ppm vs IM, 24 hours postoperatively): significantly improved; also recorded: more distal distribution; also recorded: significant increase
intestinal transit ([1]; unoperated mice, CO 250 ppm alone): slight insignificant shift
geometric center [2]: 6.3±0.8
intestinal transit [3]: improve

— patent US7687079B2, “Methods of treating ileus” (priority 2002, dated 2010)
